{"source": "patent US9150505B2", "about": "“Prophylactic or therapeutic agent for diabetes or obesity” (AJINOMOTO CO., INC., priority 2010, dated 2015)", "tested_on": "NCI-H716 cells", "assay": "Promotion of GLP-1 secretion in NCI-H716 cells", "type": "cell-based, human", "details": "10 mM, 30 minutes at 37° C., buffer assumed to be 1.0", "description": "Human appendix-derived cell line NCI-H716 (ATCC No CCL-251) was cultured in a 10% FBS-containing DMEM/HamF-12 medium at 37° C. in the presence of 5% CO2. NCI-H716 cells were seeded in a poly-D-lysine-coated 96-well plate at 100,000 cells/well and cultured for two days. Prior to sample addition, wells were washed with Hepes buffer (20 mM Hepes, 146 mM NaCl, 5 mM KCl, 1.5 mM CaCl2, 1 mM MgSO4, 5.5 mM D-glucose, 0.2% BSA, pH 7.4). Fifty μl of a sample solution dissolved in the same buffer was added and incubated at 37° C. for 30 minutes. The above-described compounds in Example 6 (Compound 1) (10 mM), Example 48 (Compound 2) (5 mM) and Example 14 (Compound 3) (2 mM) were used as the samples. In addition, a Hepes buffer was used as a control. After collecting the supernatant, the cells were precipitated by centrifugation (5,000×g, 1 min.) to collect the supernatant thereof. GLP-1 level in the supernatant was determined as described below according to a quantitative method for GLP-1 that uses GLP-1 receptor gene expression cells.\nAccording to a routine method (Lopez de Maturana R, Willshaw A, Kuntzsch A, Rudolph R, Donnelly D. J Biol Chem. 2003 Mar. 21; 278 (12):10195-200), human GLP-1 receptor gene (Nucleotide sequence 1) was integrated into pcDNA3.1 to prepare human GLP-1 receptor gene expression plasmid hGLP-1R/pcDNA3.1. Moreover, chimeric gene (Nucleotide sequence 2) of human Gα15 gene and human gustducin gene was integrated into pcDNA3.1 to prepare G protein expression plasmid Gα15-gust/pcDNA3.1. […] After 24 hours of cultivation in a CO2 incubator, changes in the fluorescence intensity were determined starting immediately after sample addition according to the Ca^2+ fluorescence indicator FLIPR Calcium 4 Assay Kit protocol (Molecular Devices) using FlexStation (Molecular Devices). Concentration dependency of human GLP-1 (7-36 Amide; Peptide Institute) with respect to the changes in the fluorescence intensity was determined and used as a standard curve for quantitating the sample. […]", "data": [{"smiles": "N[C@@H](CNC(=O)Nc1cc(Cl)cc(S(=O)(=O)O)c1O)C(=O)O", "note": "[Example 6, (2S)-2-amino-3-{[(5-chloro-2-hydroxy-3-sulfophenyl)carbamoyl]amino}propanoic acid]", "values": [{"measurement": "Relative secretion volumes (GLP-1)", "result": 2.16}]}]}
